Legend:
[1] = biological target: T1, Human αvβ3 (Homo sapiens, UniProt P05106+P06756); test: In vitro solid phase purified αvβ3 binding assay (vitronectin/αvβ3); conditions: isolated human αvβ3, 5 nM vitronectin; read-out: αvβ3 Binding IC50
T1 construct: purchased Chemicon International Inc., Temecula, Calif
Procedure: (§1) In vitro Solid Phase Purified αvβ3 Binding Assay The vitronectin/αvβ3 binding assay methods were derived from Mehta et al. (Biochem J. 1998, 330, 861). Human αvβ3 (Chemicon International Inc., Temecula, Calif.), at a concentration of 1 μg/ml dissolved in Tris buffer (20 mM Tris, 1 mM CaCl2, 1 mM MgCl2, 10 μM MnCl2, 150 mM NaCl), was immobilized on Immulon 96 well plates (Dynex Technologies, Chantilly, Va.) overnight at 4° C. Plates were washed and treated with blocking buffer (3% BSA in Tris buffer) for 2 h at 37 C. Plates were then rinsed 2 times in Tris buffer containing 0.3% BSA and 0.2% Tween20 (polyoxyethylenesorbitan monolaurate). Five minutes prior to the addition of 5 nM vitronectin (Sigma, St. Louis, Mo.), compounds of the invention were added to wells in duplicate. Each plate included c-RGDfV as an internal control. Following a 3 hour incubation at 37° C., plates were washed 5 times in assay buffer. An anti-human vitronectin IgG rabbit polyclonal antibody (Calbiochem, San Diego, Calif.) was added (1:2000) and plates were incubated for 1 hour at room temperature. VectaStain ABC peroxidase kit reagents (Vector Laboratories, Burlingame, Calif.) employing a biotin labeled anti-rabbit IgG, were utilized for detection of bound antibody. Plates were read at 490 nm on a Molecular Devices (Sunnyvale, Calif.) microplate reader. […] The plate was covered and incubated overnight at 4° C. The GPIIb/IIIa solution was discarded and 150 μl of 5% BSA was added and incubated at RT for 1–3 h. The plate was washed extensively with modified Tyrodes buffer. Biotinylated fibrinogen (25 μl/well) at 2× final concentration was added to the wells that contain the test compounds (25 μl/well). The plate was covered and incubated at RT for 2–4 h. Twenty minutes prior to incubation completion, one drop of Reagent A (VectaStain ABC Horse Radish Peroxidase kit, Vector Laboratories, Inc.) and one drop Reagent B were added with mixing to 5 mL modified Tyrodes buffer mix and let stand. The ligand solution was discarded and the plate washed (5×200 μl/well) with modified Tyrodes buffer. Vecta Stain HRP-Biotin-Avidin reagent (50 μl/well, as prepared above) was added and incubated at RT for 15 min. The Vecta Stain solution was discarded and the wells washed (5×200 μl/well) with modified Tyrodes buffer. Developing buffer (10 mL of 50 mM citrate/phosphate buffer @ pH 5.3, 6 mg o-phenylenediamine, 6 μl 30% H2O2; 50 μl/well) was added and incubated at rt for 3–5 min, and then 2 N H2SO4 (50 μl/well) was added. The absorbance was read at 490 nm.

[2] = biological target: GPIIb/IIIa (Homo sapiens, UniProt P05106+P08514); test: In vitro solid phase purified glycoprotein IIb/IIIa binding assay (biotinylated fibrinogen); conditions: RGD-affinity purified GPIIb/IIIa, biotinylated fibrinogen; read-out: GPIIb/IIIa Binding IC50
Procedure: as §1

T1 sequence (P06756 31-889 limits assumed): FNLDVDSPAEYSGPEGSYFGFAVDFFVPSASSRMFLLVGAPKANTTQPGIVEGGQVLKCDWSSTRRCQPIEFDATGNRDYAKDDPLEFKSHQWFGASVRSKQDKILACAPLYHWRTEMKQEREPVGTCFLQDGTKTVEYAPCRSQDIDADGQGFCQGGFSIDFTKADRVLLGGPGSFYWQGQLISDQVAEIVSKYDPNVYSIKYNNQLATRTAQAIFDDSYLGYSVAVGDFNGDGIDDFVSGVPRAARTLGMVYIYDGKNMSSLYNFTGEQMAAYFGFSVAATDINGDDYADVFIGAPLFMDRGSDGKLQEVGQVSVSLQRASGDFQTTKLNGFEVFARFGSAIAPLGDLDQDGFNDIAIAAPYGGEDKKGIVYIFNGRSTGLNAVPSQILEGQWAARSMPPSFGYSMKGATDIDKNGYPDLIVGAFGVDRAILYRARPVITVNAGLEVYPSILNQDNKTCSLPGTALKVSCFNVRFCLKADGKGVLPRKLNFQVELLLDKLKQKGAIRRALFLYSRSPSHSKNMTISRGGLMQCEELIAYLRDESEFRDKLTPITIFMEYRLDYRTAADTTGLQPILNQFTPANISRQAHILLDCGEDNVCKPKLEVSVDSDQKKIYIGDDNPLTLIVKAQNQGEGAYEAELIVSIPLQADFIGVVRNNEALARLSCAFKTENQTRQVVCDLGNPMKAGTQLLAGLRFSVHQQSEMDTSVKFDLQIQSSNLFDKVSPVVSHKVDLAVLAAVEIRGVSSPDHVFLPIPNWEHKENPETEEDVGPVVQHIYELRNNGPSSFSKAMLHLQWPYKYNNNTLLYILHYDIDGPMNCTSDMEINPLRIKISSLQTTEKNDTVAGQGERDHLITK
T1 sequence (P06756 891-1048 partner limits assumed): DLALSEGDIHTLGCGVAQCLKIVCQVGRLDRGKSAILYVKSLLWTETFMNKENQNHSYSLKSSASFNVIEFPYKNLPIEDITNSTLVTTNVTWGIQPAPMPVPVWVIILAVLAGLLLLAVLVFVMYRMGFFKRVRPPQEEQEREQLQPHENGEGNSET
T1 sequence (P05106 27-788): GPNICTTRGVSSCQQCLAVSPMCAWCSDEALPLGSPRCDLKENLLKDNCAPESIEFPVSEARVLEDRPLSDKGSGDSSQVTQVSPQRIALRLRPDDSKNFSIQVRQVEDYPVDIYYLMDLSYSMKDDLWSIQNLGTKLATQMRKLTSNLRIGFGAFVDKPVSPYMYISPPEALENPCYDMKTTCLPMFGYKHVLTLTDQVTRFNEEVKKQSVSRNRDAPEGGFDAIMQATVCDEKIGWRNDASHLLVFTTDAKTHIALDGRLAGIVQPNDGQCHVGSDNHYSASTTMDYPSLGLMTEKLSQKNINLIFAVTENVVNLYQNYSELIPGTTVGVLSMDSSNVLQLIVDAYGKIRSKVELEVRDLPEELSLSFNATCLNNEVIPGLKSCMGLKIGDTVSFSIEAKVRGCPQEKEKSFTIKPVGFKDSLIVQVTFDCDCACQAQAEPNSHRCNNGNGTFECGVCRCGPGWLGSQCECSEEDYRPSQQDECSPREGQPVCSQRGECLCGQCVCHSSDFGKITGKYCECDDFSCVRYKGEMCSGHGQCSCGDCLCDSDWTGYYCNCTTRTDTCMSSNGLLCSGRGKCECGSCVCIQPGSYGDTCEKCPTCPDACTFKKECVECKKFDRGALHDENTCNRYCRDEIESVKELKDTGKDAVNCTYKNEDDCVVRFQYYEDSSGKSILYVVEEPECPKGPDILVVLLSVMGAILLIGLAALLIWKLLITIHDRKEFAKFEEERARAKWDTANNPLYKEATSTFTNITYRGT
Sequence of GPIIb/IIIa (P08514 32-887 limits assumed): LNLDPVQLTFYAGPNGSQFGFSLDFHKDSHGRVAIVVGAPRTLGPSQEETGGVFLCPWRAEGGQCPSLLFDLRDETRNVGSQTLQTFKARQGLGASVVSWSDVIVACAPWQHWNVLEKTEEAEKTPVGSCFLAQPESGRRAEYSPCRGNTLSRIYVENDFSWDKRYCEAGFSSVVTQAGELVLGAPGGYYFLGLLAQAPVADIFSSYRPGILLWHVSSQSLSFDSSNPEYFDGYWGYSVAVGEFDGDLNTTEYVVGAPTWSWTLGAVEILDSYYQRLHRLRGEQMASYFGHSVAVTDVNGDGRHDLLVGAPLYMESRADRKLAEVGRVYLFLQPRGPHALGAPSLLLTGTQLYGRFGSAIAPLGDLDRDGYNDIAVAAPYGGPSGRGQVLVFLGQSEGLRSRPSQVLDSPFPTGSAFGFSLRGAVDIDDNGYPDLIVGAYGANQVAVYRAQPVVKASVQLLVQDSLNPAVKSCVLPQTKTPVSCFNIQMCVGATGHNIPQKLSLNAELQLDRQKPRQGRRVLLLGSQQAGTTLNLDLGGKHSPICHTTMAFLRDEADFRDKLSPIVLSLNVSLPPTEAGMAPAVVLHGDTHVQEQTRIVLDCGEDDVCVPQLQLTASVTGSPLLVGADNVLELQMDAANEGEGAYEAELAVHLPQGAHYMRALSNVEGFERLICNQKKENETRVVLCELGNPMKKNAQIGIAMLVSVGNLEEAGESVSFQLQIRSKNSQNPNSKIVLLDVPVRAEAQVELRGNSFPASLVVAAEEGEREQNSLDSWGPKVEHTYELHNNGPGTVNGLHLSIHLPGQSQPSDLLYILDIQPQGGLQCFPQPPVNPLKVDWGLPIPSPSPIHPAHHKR
Sequence of GPIIb/IIIa (P08514 891-1039 partner limits assumed): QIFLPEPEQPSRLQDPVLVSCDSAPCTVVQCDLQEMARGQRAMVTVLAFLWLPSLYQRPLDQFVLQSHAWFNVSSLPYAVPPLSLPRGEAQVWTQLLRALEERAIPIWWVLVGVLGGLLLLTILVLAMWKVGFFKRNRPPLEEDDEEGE
Sequence of GPIIb/IIIa (P05106 27-788): as the sequence (P05106 27-788) above

Row | SMILES | IC50 [1] | IC50 [2]
1 | CCCCNC(=O)NC/C=C/c1ccc2nc(C[C@H](NS(=O)(=O)c3c(C)c(C)c(C)c(C)c3C)C(=O)O)[nH]c(=O)c2c1 [Compound 51, 6-[(1E)-3-[[(butylamino)carbonyl]amino]-1-propenyl]-(αS)-3,4-dihydro-4-oxo-α-[[(2,3,4,5,6-pentamethylphenyl)sulfonyl]amino]-2-quinazolinepropanoic acid] | 17 nM | 4800 nM
2 | O=C(N[C@@H](Cc1nc2ccc(-c3cccc(NC4=NCCN4)c3)cc2c(=O)[nH]1)C(=O)O)OCc1ccccc1 [Compound 9, 6-[3-[(4,5-dihydro-1H-imidazol-2-yl)amino]phenyl]-(αS)-3,4-dihydro-4-oxo-α-[[(phenylmethoxy)carbonyl]amino]-2-quinazolinepropanoic Acid] | > 5000 nM | 88 nM
3 | COc1ccc(S(=O)(=O)N[C@@H](Cc2nc3ccc(/C=C/CNc4ccc(Cl)cn4)cc3c(=O)[nH]2)C(=O)O)cc1 [Compound 40, 6-[(1E)-3-[(5-chloro-2-pyridinyl)amino]-1-propenyl]-(αS)-3,4-dihydro-α-[[(4-methoxyphenyl)sulfonyl]amino]-4-oxo-2-quinazolinepropanoic acid] | 740 nM | 1900 nM
4 | Cn1c(C(CC(=O)O)c2ccccc2)nc2ccc(C=CCNC3=NCCN3)cc2c1=O [Compound 78, (βR,S)-3,4-dihydro-3-methyl-4-oxo-β-phenyl-6-[(1E)-3-[(4,5-dihydro-1H-imidazol-2-yl)amino]-1-propenyl]-2-quinazolinepropanoic acid] | 5400 nM | 55000 nM
5 | C=C(CNC(=O)NC(C)C)c1ccc2nc(C[C@H](NS(=O)(=O)c3c(C)c(C)c(C)c(C)c3C)C(=O)O)[nH]c(=O)c2c1 [Compound 64, (αS)-3,4-dihydro-6-[1-[[[[(1-methylethyl)amino]carbonyl]amino]methyl]ethenyl]-4-oxo-α-[[(2,3,4,5,6-pentamethylphenyl)sulfonyl]amino]-2-quinazolinepropanoic acid] | 150 nM | 1100 nM
6 | COc1ccc(S(=O)(=O)N[C@@H](Cc2nc3ccc(/C=C/CNc4ccccn4)cc3c(=O)[nH]2)C(=O)O)cc1OC [Compound 33, α-[[(3,4-dimethoxyphenyl)sulfonyl]amino]-(αS)-3,4-dihydro-4-oxo-6-[(1E)-3-(2-pyridinylamino)-1-propenyl]-2-quinazolinepropanoic acid] | 13 nM | 1100 nM
7 | COC(=O)[C@H](Cc1nc2ccc(/C=C/CNC3=NCCN3)cc2c(=O)[nH]1)NS(=O)(=O)c1c(C)c(C)c(C)c(C)c1C [Compound 41, 6-[(1E)-3-[(4,5-dihydro-1H-imidazol-2-yl)amino]-1-propenyl]-(αS)-3,4-dihydro-4-oxo-α-[[(2,3,4,5,6-pentamethylphenyl)sulfonyl]amino]methyl ester 2-quinazolinepropanoic acid] | 19 nM | 240 nM
8 | O=C(O)[C@H](Cc1nc2ccc(/C=C/CNc3ccccn3)cc2c(=O)[nH]1)NS(=O)(=O)c1ccc(C(F)(F)F)cc1 [Compound 25, (αS)-3,4-dihydro-4-oxo-6-[(1E)-3-(2-pyridinylamino)-1-propenyl]-α-[[[4-(trifluoromethyl)phenyl]sulfonyl]amino]-2-quinazolinepropanoic acid] | 72 nM | 9600 nM
9 | COc1ccc(S(=O)(=O)N[C@@H](Cc2nc3ccc(/C=C/CNc4cc(C)ccn4)cc3c(=O)[nH]2)C(=O)O)cc1OC [Compound 46, α-[[(3,4-dimethoxyphenyl)sulfonyl]amino]-(αS)-3,4-dihydro-6-[(1E)-3-[(4-methyl-2-pyridinyl)amino]-1-propenyl]-4-oxo-2-quinazolinepropanoic acid] | 5.8 nM | 740 nM
10 | Cc1c(C)c(C)c(S(=O)(=O)N[C@@H](Cc2nc3ccc(/C=C/CN4CCCC4=N)cc3c(=O)[nH]2)C(=O)O)c(C)c1C [Compound 27, (αS)-3,4-dihydro-6-[(1E)-3-(2-imino-1-pyrrolidinyl)-1-propenyl]-4-oxo-α-[[(2,3,4,5,6-pentamethylphenyl)sulfonyl]amino]-2-quinazolinepropanoic acid] | 120 nM | 19 nM
11 | O=C(NC/C=C/c1ccc2nc(C[C@H](NS(=O)(=O)c3cccs3)C(=O)O)[nH]c(=O)c2c1)NCc1ccccc1 [Compound 72, (αS)-3,4-dihydro-4-oxo-6-[(1E)-3-[[[(phenylmethyl)amino]carbonyl]amino]-1-propenyl]-α-[(2-thienylsulfonyl)amino]-2-quinazolinepropanoic acid] | 1300 nM | 17000 nM
12 | Cc1c(C)c(C)c(S(=O)(=O)N[C@@H](Cc2nc3ccc(/C=C/CNc4ccccn4)cc3c(=O)[nH]2)C(=O)O)c(C)c1C [Compound 10, (αS)-3,4-dihydro-4-oxo-α-[[(2,3,4,5,6-pentamethylphenyl)sulfonyl]amino]-6-[(1E)-3-(2-pyridinylamino)-1-propenyl]-2-quinazolinepropanoic Acid] | 6.1 nM | 640 nM
13 | O=C(NC/C=C/c1ccc2nc(C[C@H](NS(=O)(=O)CCc3cccc4ccccc34)C(=O)O)[nH]c(=O)c2c1)NCc1ccccc1 [Compound 76, (αS)-3,4-dihydro-α-[[[2-(1-naphthalenyl)ethyl]sulfonyl]amino]-4-oxo-6-[(1E)-3-[[[(phenylmethyl)amino]carbonyl]amino]-1-propenyl]-2-quinazolinepropanoic acid] | > 500 nM | 45000 nM
14 | Cc1c(C)c(C)c(S(=O)(=O)N[C@@H](Cc2nc3ccc(/C=C/CNC(=O)NCc4ccccc4)cc3c(=O)[nH]2)C(=O)O)c(C)c1C [Compound 49, (αS)-3,4-dihydro-4-oxo-α-[[(2,3,4,5,6-pentamethylphenyl)sulfonyl]amino]-6-[(1E)-3-[[(benzylamino)carbonyl]amino]-1-propenyl]-2-quinazolinepropanoic acid] | 8.8 nM | 820 nM
15 | COc1ccc(S(=O)(=O)N[C@@H](Cc2nc3ccc(/C=C/CNC4=NCCCCCC4)cc3c(=O)[nH]2)C(=O)O)cc1OC [Compound 68, α-[[(3,4-dimethoxyphenyl)sulfonyl]amino]-6-[(1E)-3-[(3,4,5,6,7,8-hexahydro-2-azocinyl)amino]-1-propenyl]-(αS)-3,4-dihydro-4-oxo-2-quinazolinepropanoic acid] | 440 nM | 230 nM
16 | O=C(O)CCc1nc2ccc(/C=C/CNc3ccccn3)cc2c(=O)n1Cc1ccccc1 [Compound 82, 3,4-dihydro-4-oxo-3-(phenylmethyl)-6-[(1E)-3-(2-pyridinylamino)-1-propenyl]-2-quinazolinepropanoic acid] | > 5000 nM | > 50000 nM
17 | COc1ccc(S(=O)(=O)N[C@@H](Cc2nc3ccc(/C=C/CNC4=NCCN4)cc3c(=O)[nH]2)C(=O)O)cc1 [Compound 50, 6-[(1E)-3-[(4,5-dihydro-1H-imidazol-2-yl)amino]-1-propenyl]-(αS)-3,4-dihydro-α-[[(4-methoxyphenyl)sulfonyl]amino]-4-oxo-2-quinazolinepropanoic acid] | 6.8 nM | 51 nM
18 | Cc1noc(C)c1S(=O)(=O)N[C@@H](Cc1nc2ccc(/C=C/CNc3ccccn3)cc2c(=O)[nH]1)C(=O)O [Compound 37, α-[[(3,5-dimethyl-4-isoxazolyl)sulfonyl]amino]-(αS)-3,4-dihydro-4-oxo-6-[(1E)-3-(2-pyridinylamino)-1-propenyl]-2-quinazolinepropanoic acid] | 54 nM | 700 nM

From patent US7081460B2, “Quinazoline and quinazoline-like compounds for the treatment of integrin-mediated disorders” (Ortho-McNeil Pharmaceutical, Inc., priority 2001, dated 2006)
